This note sets out measurements from PubChem BioAssay AID1056 (Sanford-Burnham Center for Chemical Genomics, 2008).

This assay has as its target Alkaline phosphatase, tissue-nonspecific isozyme (Homo sapiens) (UniProt P05186). Kind of assay: potency against alkaline phosphatase TNAP – biochemical, luminescent, dose response, SAR follow-up (AID 1056). The conditions noted are these: purified human TNAP, luminescent substrate read-out.

Broadly, the IC50 is the concentration at which inhibition is half-maximal.

As to `COCCNC(=O)c1cc(-c2ccc(Cl)cc2Cl)n[nH]1`, the IC50 is 0.0464 µM.

Regarding `COc1ccc2c(c1OC)C(=O)OC2CC(=O)c1ccc(O)c(O)c1` (stereo not given), the IC50 is 29.2 µM.

Regarding `O=C(c1cc(-c2cc(F)c(Cl)cc2Cl)n[nH]1)N(CCO)CCO`, the IC50 was 0.127 µM.

Turning to `O=C(CNc1nc2ccccc2[nH]1)c1ccc(O)c(O)c1`, the IC50 was 93.8 µM.

Take `CCN(CC)C(=O)c1cc(-c2ccc(Cl)cc2Cl)n[nH]1`: the concentration for half-maximal inhibition (IC50) was 0.285 µM.

`O=C(c1cc(-c2ccc(Cl)cc2Cl)n[nH]1)N1CCCCCC1`: the IC50 is 1.45 µM.

For `O=C(NCCO)c1cc(-c2cc(F)c(F)cc2F)n[nH]1`, the IC50 was 0.134 µM.

`O=C1C2CC=CCC2C(=O)N1c1n[nH]c(-c2cccnc2)n1` (stereo not given): the IC50 is 10.5 µM.

Regarding `O=C(NCCCO)c1cc(-c2cc(F)c(Cl)cc2Cl)n[nH]1`, the IC50 is 0.0558 µM.

As for `O=C(Cn1cnc(Br)c1)c1ccc(O)c(O)c1`, the half-maximal inhibitory concentration (IC50) is 47.5 µM.

As for `COc1cccc(S(=O)(=O)Nc2cnc3ccccc3c2)c1`, the IC50 was 25.8 µM.

On to `COc1ccc(C)cc1S(=O)(=O)Nc1cnc2ccccc2c1`, for which the concentration for half-maximal inhibition (IC50) was 0.649 µM.

In the case of `CCOc1ccc(Cl)cc1S(=O)(=O)Nc1cccnc1`, the 50% inhibitory concentration (IC50) was 0.537 µM.

With `CN(C)C(=O)c1cc(-c2ccc(Cl)cc2Cl)n[nH]1`, the concentration for half-maximal inhibition (IC50) was 0.119 µM.

For the molecule `Cc1nc(Br)cn1CC(=O)c1ccc(O)c(O)c1`, the concentration for half-maximal inhibition (IC50) was 8.74 µM.

With `CC(C)CCNC(=O)c1cc(-c2ccc(Cl)cc2Cl)n[nH]1`, the IC50 was 0.459 µM.

Turning to `COc1cc(C)c(Cl)cc1S(=O)(=O)Nc1cccnc1`, the IC50 was 0.511 µM.

As for `CC(C)NC(=O)c1cc(-c2ccc(Cl)cc2Cl)n[nH]1`, the IC50 was 0.0511 µM.

With `CCN1CCN(C(=O)c2cc(-c3ccc(Cl)cc3Cl)n[nH]2)CC1`, the 50% inhibitory concentration (IC50) is 0.488 µM.

In the case of `O=C(NCCO)c1cc(-c2ccc(F)cc2F)n[nH]1`, the concentration for half-maximal inhibition (IC50) is 0.035 µM.

`COc1ccc(OC)c(S(=O)(=O)Nc2cccnc2)c1`: the half-maximal inhibitory concentration (IC50) is 1.06 µM.

As to `O=C(c1cc(-c2ccc(Cl)cc2Cl)n[nH]1)N1CCN(CCO)CC1`, the IC50 is 0.375 µM.

As for `O=C1C2CCCCC2C(=O)N1c1n[nH]c(Cc2ccccc2)n1` (stereo not given), the half-inhibitory concentration (IC50) was 1.57 µM.

For `CCOc1cc(C)c(Cl)cc1S(=O)(=O)Nc1cccnc1`, the IC50 is 0.691 µM.

For `O=C(NCCO)c1cc(-c2ccc(Cl)cc2Cl)n[nH]1`, the IC50 was 0.0444 µM.

Turning to `COc1ccc(F)cc1S(=O)(=O)Nc1cccnc1`, the IC50 was 1.29 µM.

For `O=C(c1cc(-c2ccc(Cl)cc2Cl)n[nH]1)N1CCOCC1`, the IC50 is 0.574 µM.

For `O=C1C2C3C=CC(C3)C2C(=O)N1c1n[nH]c(CCc2ccccc2)n1` (stereo not given), the IC50 is 30.6 µM.

With `O=C1C2CC=CCC2C(=O)N1c1n[nH]c(CCc2ccccc2)n1` (stereo not given), the IC50 is 27.9 µM.

Turning to `COc1cc(S(=O)(=O)Nc2cccnc2)c(OC)cc1C`, the half-maximal inhibitory concentration (IC50) is 1.49 µM.

Consider `O=C1c2ccccc2C(=O)N1c1n[nH]c(Cc2ccccc2)n1`, for which the concentration for half-maximal inhibition (IC50) is 0.67 µM.

Take `O=C(c1cc(-c2ccc(Cl)cc2Cl)n[nH]1)N(CCO)CCO`: the concentration for half-maximal inhibition (IC50) was 0.0468 µM.

Consider `Cc1cn(CC(=O)c2ccc(O)c(O)c2)cn1`, for which the 50% inhibitory concentration (IC50) was 41.1 µM.

For the molecule `CN1CCN(C(=O)c2cc(-c3ccc(Cl)cc3Cl)n[nH]2)CC1`, the IC50 is 0.828 µM.

On to `CC(C)(C)NC(=O)c1cc(-c2ccc(Cl)cc2Cl)n[nH]1`, for which the 50% inhibitory concentration (IC50) was 0.398 µM.

Regarding `CC(C)CNC(=O)c1cc(-c2ccc(Cl)cc2Cl)n[nH]1`, the half-inhibitory concentration (IC50) is 0.0815 µM.

Take `COc1cc(S(=O)(=O)Nc2cccnc2)c(OC)cc1Cl`: the IC50 was 1.13 µM.

For the molecule `CC(C)NC(=O)c1cc(-c2cc(F)c(Cl)cc2Cl)n[nH]1`, the IC50 is 4.85 µM.

In the case of `CN(C)C(=O)c1cc(-c2cc(F)c(Cl)cc2Cl)n[nH]1`, the IC50 is 0.324 µM.

As to `O=C(NCCO)c1cc(-c2cc(F)c(Cl)cc2Cl)n[nH]1`, the IC50 is 0.1 µM.

`O=C(NCCCO)c1cc(-c2ccc(Cl)cc2Cl)n[nH]1`: the IC50 is 0.0313 µM.

On to `COc1cc(C)c(C)cc1S(=O)(=O)Nc1cccnc1`, for which the concentration for half-maximal inhibition (IC50) is 1.68 µM.

For `O=C(NCCCCO)c1cc(-c2ccc(Cl)cc2Cl)n[nH]1`, the IC50 was 0.0345 µM.

For `COc1cc(S(=O)(=O)Nc2cccnc2)c(OC)cc1Br`, the IC50 is 1.55 µM.

As for `O=C1C2CC=CCC2C(=O)N1c1n[nH]c(-c2ccco2)n1` (stereo not given), the 50% inhibitory concentration (IC50) was 4.68 µM.
